Target: T1, GyrBA-fus (full-length T. thermophilus DNA gyrase GyrB-GyrA fusion) (Thermus thermophilus, UniProt Q5SHZ4+Q5SIL4)
T1 construct: full-length GyrB fused at its C-terminus to the N-terminus of full-length GyrA by a G-D-L linker; N-terminal His10 tag with PreScission site; E. coli BL21(DE3); dimer (A2B2 equivalent) of 320377 Da
Experiment: native ESI mass spectrometry
Assay type: binding
Conditions: 200 mM ammonium acetate pH 7.5; two ADPNP per fusion dimer; ATPase domain (GyrB) site; also in the holoenzyme cryo-EM sample (16.9 Å)

## Nc1ncnc2c1ncn2[C@@H]1O[C@H](COP(=O)(O)OP(=O)(O)NP(=O)(O)O)[C@@H](O)[C@H]1O [ADPNP]
  native ESI mass spectrometry: showing the addition of two ADPNP molecules per GyrBA-fus dimer

Source: publication PMC3763546, “Structural insight into negative DNA supercoiling by DNA gyrase, a bacterial type 2A DNA topoisomerase” (Nucleic Acids Research, 2013)
